Values joined by “and” are separate entries in the source; they are usually repeats but may differ in a detail not shown here. Identical values can stand only once.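 Assay format: 96-well plates, 48-hour exposure. GI50 marks 50% less growth. TGI denotes the concentration required for complete inhibition of growth.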
Assays:
Test in all cases: NCI-60 cell line screen, 48 h
[1] = tested on: ACHN renal
[2] = tested on: MALME-3M melanoma
[3] = tested on: TK-10 renal
[4] = tested on: CCRF-CEM leukemia
[5] = tested on: OVCAR-3 ovarian
[6] = tested on: MDA-MB-231 breast
[7] = tested on: NCI/ADR-RES ovarian
[8] = tested on: T-47D breast
[9] = tested on: LOX IMVI melanoma
[10] = tested on: HCC-2998 colon

Compound	TGI [1]	TGI [2]	GI50 [3]	TGI [3]	TGI [4]	GI50 [5]	TGI [5]	TGI [6]	TGI [7]	TGI [8]	GI50 [9]	TGI [9]	GI50 [10]	TGI [10]	GI50 [1]	GI50 [2]	GI50 [4]	GI50 [6]	GI50 [7]	GI50 [8]
COc1ccc(C2C(C)C(=O)C(C)C(c3ccc(OC)cc3)N2N=O)cc1 (stereo unspecified)	> 663 µM	> 700 µM	147 µM	488 µM and 245 µM	> 1000 µM	> 750 µM	> 1000 µM	132 µM	> 1000 µM	713 µM	> 750 µM	> 1000 µM	> 1000 µM	> 1000 µM						
c1ccc2cc(C[n+]3ccn(CCCCCCCCCCn4cc[n+](Cc5ccc6ccccc6c5)c4)c3)ccc2c1	80.3 µM	1.48 µM	3.28 µM	16.9 µM	2.97 µM	1.95 µM	7.09 µM	5.3 µM	> 100 µM	4.74 µM	1.21 µM	3.66 µM	1.37 µM	5.13 µM	6.17 µM	0.313 µM	1.22 µM	1.33 µM	29.4 µM	0.491 µM
Clc1ccc(OCc2nnc3n2N=C(c2ccc(Cl)cc2Cl)CS3)cc1	49.3 µM	58.6 µM	15.9 µM	> 100 µM	68.1 µM	17.8 µM	50.7 µM	33.2 µM	37.9 µM	> 100 µM	16.2 µM	30.9 µM	16.6 µM	35 µM	20.4 µM	19.8 µM	21.1 µM	14.4 µM	16.2 µM	38.5 µM
Cn1c(NCC(O)CN2CCCC2)cc(=O)n(C)c1=O (stereo unspecified)	> 100 µM	> 100 µM	> 100 µM	> 100 µM	> 100 µM	> 100 µM	> 100 µM	> 100 µM	> 100 µM	> 100 µM	> 100 µM	> 100 µM	> 100 µM	> 100 µM	> 100 µM	> 100 µM	> 100 µM	> 100 µM	> 100 µM	> 100 µM
CCCCCCCCC(=O)OCC(CS[As](C)C)OC(=O)CCCCCCCC (stereo unspecified)	3.62 µM	0.708 µM	0.364 µM	3.14 µM	11.5 µM	0.191 µM	0.583 µM	18.4 µM	3.07 µM	20.1 µM	1.09 µM	5.7 µM	0.356 µM	1.83 µM	0.602 µM	0.0531 µM	0.396 µM	2.7 µM	0.89 µM	0.267 µM
COc1ccc(C2=NN(C(=O)c3cc(OC)c(OC)c(OC)c3)C(c3ccc(N(C)C)cc3)C2)cc1 (stereo unspecified)	> 100 µM	> 100 µM	0.682 µM	> 100 µM	> 27.1 µM	0.284 µM	4.7 µM	8.75 µM		> 100 µM	0.549 µM	> 100 µM	0.357 µM	2.69 µM	0.622 µM	41.6 µM	1.8 µM	1.72 µM	0.379 µM	0.535 µM
Cc1ccc(NC(=O)c2sc3nc4c(cc3c2N)C(=O)CCC4)cc1C	> 100 µM	> 100 µM	> 70 µM	> 100 µM	97 µM	0.345 µM	1.6 µM	> 100 µM	> 100 µM	> 73.2 µM	0.837 µM	> 100 µM	1.96 µM	> 100 µM	1.42 µM		0.377 µM	1.65 µM	0.784 µM	0.533 µM
CCCCCCCCCCCCCCCCC(=O)O.CCCCCCCCCCCCCCCCCC(=O)O.CCCCCCCCCCCCCCCCCC(=O)O.CCCCCCCCCCCCCCCCCC(=O)O.CCCCCCCCCCCCCCCCCC(=O)O.CO[CH-]OC12COC1CC(O)C1(C)C(O)C(OC(C)O)C3=C(C)C(OC(=O)C(O)C([NH-])c4ccccc4)CC(O)(C(OC(=O)c4ccccc4)C21)C3(C)C.[Cu+].[Zn].[Zn].[Zn].[Zn].[Zn] (stereo unspecified)	> 25 µM	6.91 µM	0.258 µM	> 25 µM	> 17.7 µM	0.00747 µM	0.388 µM	4.48 µM	24.6 µM	> 25 µM	0.00381 µM	7.05 µM	0.00647 µM		0.272 µM	0.00947 µM	0.0095 µM	0.0135 µM	2.31 µM	0.00863 µM

From PubChem BioAssay (NCI)
